Test results published in publication doi:10.1101/2024.08.19.608619, “Discovery of potent SARS-CoV-2 nsp3 macrodomain inhibitors uncovers lack of translation to cellular antiviral response” (bioRxiv, 2024).
pEC50, pIC50: −log10 of the molar value. Values joined by “and” are separate entries in the source; they are usually repeats but may differ in a detail not shown here. Equal entries are not always repeated. Where two headings read alike, the source gives them in different places.

Assays:
[1] = In vitro mouse hepatocyte stability; format: in vitro ADME
Text: Supplement media-1.zip/Hepatocyte_Stability.csv, table | column: clint; t_half

A2A (h) = molecular target: T1, A2A (h) (Homo sapiens, UniProt P29274); test: In vitro CEREP profiling, A2A (h) (agonist radioligand); format: binding; conditions: test compound 10 uM; for inhibition at 10 µM: read-out: perc_inhibition (% inhibition of the binding of a ligand specific for each target)
T1 construct: purchased Eurofins Cerep (SafetyScreen44), recognised from the panel format
Text: (§1) Supplement media-1.zip/Safety_Panel_Profile.csv, table | column: perc_inhibition

alpha2A (h) = molecular target: T2, alpha2A (h) (Homo sapiens, UniProt P08913); test: In vitro CEREP profiling, alpha2A (h) (antagonist radioligand); format: binding; conditions: test compound 10 uM; for inhibition at 10 µM: read-out: perc_inhibition (% inhibition of the binding of a ligand specific for each target)
T2 construct: purchased Eurofins Cerep (SafetyScreen44), recognised from the panel format
T2 sequence (P08913 1-465): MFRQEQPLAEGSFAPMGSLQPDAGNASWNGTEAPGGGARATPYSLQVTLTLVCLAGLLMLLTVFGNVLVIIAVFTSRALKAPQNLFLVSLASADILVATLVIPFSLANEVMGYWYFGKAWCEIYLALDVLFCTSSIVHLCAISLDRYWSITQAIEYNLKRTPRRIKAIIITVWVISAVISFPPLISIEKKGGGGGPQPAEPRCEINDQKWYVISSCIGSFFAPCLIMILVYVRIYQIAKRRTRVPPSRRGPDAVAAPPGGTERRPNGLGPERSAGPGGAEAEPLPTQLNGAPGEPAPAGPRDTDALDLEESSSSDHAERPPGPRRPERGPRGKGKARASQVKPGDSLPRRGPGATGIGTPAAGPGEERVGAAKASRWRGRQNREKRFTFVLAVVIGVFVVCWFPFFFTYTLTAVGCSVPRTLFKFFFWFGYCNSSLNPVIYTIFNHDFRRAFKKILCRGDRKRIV
Text: as §1

MAO-A = molecular target: T3, MAO-A (Rattus norvegicus, UniProt P21396); test: In vitro CEREP profiling, MAO-A (antagonist radioligand); format: binding; conditions: test compound concentration 10 uM; for inhibition at 10 µM: read-out: perc_inhibition (% inhibition of the binding of a ligand specific for each target)
T3 construct: purchased Eurofins Cerep (SafetyScreen44), recognised from the panel format
T3 sequence (P21396 1-526): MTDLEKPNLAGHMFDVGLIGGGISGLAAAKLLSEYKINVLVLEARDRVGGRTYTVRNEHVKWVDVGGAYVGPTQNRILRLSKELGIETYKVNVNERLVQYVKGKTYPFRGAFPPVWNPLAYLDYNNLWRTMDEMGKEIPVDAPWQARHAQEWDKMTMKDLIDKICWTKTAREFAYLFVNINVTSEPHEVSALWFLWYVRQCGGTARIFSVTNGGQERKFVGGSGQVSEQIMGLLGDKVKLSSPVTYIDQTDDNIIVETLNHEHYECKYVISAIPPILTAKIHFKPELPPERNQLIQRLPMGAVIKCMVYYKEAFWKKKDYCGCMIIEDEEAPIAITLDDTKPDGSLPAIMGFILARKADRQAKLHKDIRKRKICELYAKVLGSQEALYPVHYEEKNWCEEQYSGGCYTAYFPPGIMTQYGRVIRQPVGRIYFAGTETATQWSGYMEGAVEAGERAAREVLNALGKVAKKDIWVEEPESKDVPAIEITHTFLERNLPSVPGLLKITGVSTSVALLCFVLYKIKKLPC
Text: as §1

M3 (h) = molecular target: T4, M3 (h) (Homo sapiens, UniProt P20309); test: In vitro CEREP profiling, M3 (h) (antagonist radioligand); format: binding; conditions: test compound concentration 10 uM; for inhibition at 10 µM: read-out: perc_inhibition (% inhibition of the binding of a ligand specific for each target)
T4 construct: purchased Eurofins Cerep (SafetyScreen44), recognised from the panel format
Text: as §1

acetylcholinesterase (h) = molecular target: T5, acetylcholinesterase (h) (Homo sapiens, UniProt P22303); test: In vitro CEREP profiling, acetylcholinesterase (h); format: biochemical; conditions: test compound concentration 10 uM, Enzyme and Cell-based assays; for inhibition at 10 µM: read-out: perc_inhibition: % inhibition of control enzyme activity, acetylcholinesterase (h)
T5 construct: purchased Eurofins Cerep (SafetyScreen44), recognised from the panel format
Text: as §1

CB1 (h) = molecular target: T6, CB1 (h) (Homo sapiens, UniProt P21554); test: In vitro CEREP profiling, CB1 (h) (agonist radioligand); format: binding; conditions: test compound 10 uM; for inhibition at 10 µM: read-out: perc_inhibition (% inhibition of the binding of a ligand specific for each target)
T6 construct: purchased Eurofins Cerep (SafetyScreen44), recognised from the panel format
Text: as §1

[2] = In vitro rat SD liver microsomal stability; format: in vitro ADME
Text: Supplement media-1.zip/Hepatic_Microsomal_Stability.csv, table | column: clint; t_half

5-HT1A (h) = molecular target: T7, 5-HT1A (h) (Homo sapiens, UniProt P08908); test: In vitro CEREP profiling, 5-HT1A (h) (agonist radioligand); format: binding; conditions: test compound concentration 10 uM; for inhibition at 10 µM: read-out: perc_inhibition (% inhibition of the binding of a ligand specific for each target)
T7 construct: purchased Eurofins Cerep (SafetyScreen44), recognised from the panel format
T7 sequence (P08908 1-422): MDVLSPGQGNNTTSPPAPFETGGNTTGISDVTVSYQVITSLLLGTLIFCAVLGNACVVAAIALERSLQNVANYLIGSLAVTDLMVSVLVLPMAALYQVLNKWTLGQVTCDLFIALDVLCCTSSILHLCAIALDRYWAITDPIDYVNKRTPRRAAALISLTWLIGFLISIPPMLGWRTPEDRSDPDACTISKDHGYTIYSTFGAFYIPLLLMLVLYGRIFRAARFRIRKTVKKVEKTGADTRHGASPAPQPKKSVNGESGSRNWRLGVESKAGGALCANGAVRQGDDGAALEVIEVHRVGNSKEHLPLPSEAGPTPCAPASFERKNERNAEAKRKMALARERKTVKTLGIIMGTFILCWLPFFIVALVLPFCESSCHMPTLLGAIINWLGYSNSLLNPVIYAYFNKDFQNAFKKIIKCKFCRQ
Text: as §1

ETA (h) = molecular target: T8, ETA (h) (Homo sapiens, UniProt P25101); test: In vitro CEREP profiling, ETA (h) (agonist radioligand); format: binding; conditions: test compound 10 uM; for inhibition at 10 µM: read-out: perc_inhibition (% inhibition of the binding of a ligand specific for each target)
T8 construct: purchased Eurofins Cerep (SafetyScreen44), recognised from the panel format
T8 sequence (P25101 21-427): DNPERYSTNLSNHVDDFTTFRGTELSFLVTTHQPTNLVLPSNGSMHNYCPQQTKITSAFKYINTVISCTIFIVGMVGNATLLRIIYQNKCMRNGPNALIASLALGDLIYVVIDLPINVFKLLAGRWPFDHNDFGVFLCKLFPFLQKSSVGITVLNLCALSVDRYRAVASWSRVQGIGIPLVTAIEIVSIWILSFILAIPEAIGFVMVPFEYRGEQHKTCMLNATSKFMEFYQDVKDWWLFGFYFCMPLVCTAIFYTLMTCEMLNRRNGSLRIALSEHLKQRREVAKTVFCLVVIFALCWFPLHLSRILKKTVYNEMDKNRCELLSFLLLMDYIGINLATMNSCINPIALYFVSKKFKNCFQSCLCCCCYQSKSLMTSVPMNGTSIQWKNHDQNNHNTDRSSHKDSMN
Text: as §1

MERS-CoV = test: microbe, parasite or virus in culture; format: cell-based; conditions: for perc_max_measured: maximum measured response of dose series; for perc_min_measured: minimum measured response of dose series
NaV1.5 = NaV1.5 (Homo sapiens, UniProt Q14524); test: In vitro NaV1.5 cardiotoxicity; conditions: top test concentration 30 uM
Text: Supplement media-1.zip/Cardiotoxicity.csv, table | column: ic50_rest_state; ic50_use_dep_block; perc_inhibition_rest_state; perc_inhibition_use_dep_block

in vitro = conditions: human, hela-ace2 cells, 50.0
[3] = Vero E6/TMPRSS2 MERS-CoV antiviral effect with P-gp inhibitor
[4] = Vero E6/TMPRSS2 MERS-CoV antiviral effect with P-gp inhibitor, read-out: ec90
[5] = NaV1.5, rest state, read-out: ic50_rest_state
[6] = NaV1.5, use dependent block, read-out: ic50_use_dep_block
[7] = Vero E6/TMPRSS2 MERS-CoV antiviral effect with P-gp inhibitor, read-out: ec50
[8] = Middle East respiratory syndrome-related coronavirus, VeroE6/TMPRSS2

T6 sequence (P21554 whole entry): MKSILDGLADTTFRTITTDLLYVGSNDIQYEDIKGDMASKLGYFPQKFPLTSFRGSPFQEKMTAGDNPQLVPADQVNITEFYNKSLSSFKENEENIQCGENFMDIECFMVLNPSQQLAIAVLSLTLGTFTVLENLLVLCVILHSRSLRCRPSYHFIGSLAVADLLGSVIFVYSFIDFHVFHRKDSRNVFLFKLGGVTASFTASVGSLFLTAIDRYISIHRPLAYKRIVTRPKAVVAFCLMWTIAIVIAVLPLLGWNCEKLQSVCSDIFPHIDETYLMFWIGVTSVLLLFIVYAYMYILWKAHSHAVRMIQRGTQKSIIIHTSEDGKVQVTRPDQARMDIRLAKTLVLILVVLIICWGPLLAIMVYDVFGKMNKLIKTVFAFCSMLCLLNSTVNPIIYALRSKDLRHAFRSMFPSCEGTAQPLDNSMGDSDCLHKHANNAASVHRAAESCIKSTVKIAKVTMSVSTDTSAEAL
T1 sequence (P29274 whole entry): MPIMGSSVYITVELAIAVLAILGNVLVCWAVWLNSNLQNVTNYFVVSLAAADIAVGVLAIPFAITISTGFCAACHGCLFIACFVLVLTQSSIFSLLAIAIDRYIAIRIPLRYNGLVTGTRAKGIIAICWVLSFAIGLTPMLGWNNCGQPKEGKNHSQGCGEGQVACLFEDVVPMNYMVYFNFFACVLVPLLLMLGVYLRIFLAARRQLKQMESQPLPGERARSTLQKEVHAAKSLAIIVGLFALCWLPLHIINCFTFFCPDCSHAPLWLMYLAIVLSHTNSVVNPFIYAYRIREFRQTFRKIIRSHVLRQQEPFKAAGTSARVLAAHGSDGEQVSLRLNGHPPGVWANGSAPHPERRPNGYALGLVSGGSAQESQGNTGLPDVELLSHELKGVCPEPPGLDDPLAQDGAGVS
T5 sequence (P22303 32-614): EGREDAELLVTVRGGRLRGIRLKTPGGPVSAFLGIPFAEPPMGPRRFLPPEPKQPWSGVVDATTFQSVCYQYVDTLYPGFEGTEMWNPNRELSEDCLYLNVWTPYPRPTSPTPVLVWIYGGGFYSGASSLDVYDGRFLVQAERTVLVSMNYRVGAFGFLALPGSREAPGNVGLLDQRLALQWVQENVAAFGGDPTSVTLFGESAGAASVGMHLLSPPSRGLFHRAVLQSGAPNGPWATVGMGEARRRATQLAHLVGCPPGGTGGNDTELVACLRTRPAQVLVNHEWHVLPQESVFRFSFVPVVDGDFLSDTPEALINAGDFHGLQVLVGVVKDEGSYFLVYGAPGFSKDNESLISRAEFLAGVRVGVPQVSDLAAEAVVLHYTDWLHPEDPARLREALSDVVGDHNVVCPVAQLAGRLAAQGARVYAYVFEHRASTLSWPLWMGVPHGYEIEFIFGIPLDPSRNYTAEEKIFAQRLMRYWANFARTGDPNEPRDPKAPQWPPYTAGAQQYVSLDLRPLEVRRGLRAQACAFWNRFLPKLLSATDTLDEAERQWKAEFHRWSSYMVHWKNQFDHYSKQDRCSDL
T4 sequence (P20309 whole entry): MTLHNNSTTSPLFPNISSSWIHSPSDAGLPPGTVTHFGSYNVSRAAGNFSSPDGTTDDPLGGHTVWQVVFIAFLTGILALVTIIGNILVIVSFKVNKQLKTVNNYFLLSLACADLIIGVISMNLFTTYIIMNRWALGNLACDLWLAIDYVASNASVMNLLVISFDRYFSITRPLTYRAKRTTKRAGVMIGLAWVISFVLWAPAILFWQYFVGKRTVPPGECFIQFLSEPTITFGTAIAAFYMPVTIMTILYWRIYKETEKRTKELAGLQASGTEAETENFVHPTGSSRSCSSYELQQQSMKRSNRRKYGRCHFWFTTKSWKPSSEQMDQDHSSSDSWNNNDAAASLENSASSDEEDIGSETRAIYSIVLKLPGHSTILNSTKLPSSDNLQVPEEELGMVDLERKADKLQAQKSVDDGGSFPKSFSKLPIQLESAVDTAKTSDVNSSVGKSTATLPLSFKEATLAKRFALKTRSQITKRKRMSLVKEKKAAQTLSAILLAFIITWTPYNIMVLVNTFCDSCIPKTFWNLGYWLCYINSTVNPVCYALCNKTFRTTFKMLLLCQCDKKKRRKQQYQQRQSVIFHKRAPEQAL
NaV1.5, sequence (Q14524 whole entry): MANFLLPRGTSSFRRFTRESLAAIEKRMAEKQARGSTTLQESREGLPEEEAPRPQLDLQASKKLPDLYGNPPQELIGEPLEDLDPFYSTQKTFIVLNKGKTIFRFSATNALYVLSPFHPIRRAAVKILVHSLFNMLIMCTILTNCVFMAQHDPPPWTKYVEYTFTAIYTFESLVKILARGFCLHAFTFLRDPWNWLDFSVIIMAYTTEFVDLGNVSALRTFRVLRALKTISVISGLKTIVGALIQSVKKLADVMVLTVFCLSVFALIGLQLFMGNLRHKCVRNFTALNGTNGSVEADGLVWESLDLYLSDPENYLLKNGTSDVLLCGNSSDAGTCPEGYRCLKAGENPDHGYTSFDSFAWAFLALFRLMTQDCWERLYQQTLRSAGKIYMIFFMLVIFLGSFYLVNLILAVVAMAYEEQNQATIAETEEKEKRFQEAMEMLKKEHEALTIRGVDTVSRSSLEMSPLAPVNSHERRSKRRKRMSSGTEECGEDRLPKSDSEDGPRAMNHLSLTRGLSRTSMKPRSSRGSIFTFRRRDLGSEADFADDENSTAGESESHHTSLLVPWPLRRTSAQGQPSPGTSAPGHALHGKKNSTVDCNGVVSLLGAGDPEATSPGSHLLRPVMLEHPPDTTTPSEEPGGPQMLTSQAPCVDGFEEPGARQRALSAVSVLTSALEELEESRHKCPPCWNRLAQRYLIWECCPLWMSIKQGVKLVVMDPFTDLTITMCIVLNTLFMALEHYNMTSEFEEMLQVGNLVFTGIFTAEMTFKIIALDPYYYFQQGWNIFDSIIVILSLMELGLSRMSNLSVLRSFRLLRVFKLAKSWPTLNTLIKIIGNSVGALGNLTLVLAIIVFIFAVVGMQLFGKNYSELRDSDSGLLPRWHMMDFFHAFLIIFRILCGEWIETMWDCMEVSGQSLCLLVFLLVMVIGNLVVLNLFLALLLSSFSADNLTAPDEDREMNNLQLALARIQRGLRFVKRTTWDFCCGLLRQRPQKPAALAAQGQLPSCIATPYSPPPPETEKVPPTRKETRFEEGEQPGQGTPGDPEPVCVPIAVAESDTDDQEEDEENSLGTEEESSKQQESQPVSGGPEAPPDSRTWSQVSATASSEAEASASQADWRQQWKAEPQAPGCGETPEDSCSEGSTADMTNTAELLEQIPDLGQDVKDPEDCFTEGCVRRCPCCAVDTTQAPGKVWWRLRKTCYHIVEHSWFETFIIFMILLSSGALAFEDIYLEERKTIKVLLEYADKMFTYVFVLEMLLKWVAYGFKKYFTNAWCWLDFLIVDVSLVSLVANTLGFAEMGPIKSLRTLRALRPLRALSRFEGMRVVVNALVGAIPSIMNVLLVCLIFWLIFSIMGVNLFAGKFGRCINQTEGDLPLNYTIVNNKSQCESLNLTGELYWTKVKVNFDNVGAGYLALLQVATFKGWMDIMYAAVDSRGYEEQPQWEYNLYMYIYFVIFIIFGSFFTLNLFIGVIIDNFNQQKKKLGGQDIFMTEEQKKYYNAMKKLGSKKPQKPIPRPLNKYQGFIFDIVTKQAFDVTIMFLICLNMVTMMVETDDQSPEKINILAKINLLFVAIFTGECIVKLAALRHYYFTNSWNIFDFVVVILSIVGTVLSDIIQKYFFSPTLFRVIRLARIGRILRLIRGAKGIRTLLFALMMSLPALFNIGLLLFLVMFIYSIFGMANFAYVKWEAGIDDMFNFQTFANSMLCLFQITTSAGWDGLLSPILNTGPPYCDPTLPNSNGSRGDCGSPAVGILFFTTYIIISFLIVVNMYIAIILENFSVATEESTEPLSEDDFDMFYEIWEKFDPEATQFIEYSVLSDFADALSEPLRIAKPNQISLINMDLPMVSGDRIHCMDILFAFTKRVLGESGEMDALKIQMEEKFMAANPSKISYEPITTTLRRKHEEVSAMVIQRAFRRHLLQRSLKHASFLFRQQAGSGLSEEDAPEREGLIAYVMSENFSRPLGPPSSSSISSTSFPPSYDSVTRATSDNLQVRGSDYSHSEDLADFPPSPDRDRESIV

SMILES	clint [1] [uL/min/1E6 cells]	t_half [1]	perc_inhibition (% inhibition of the binding of a ligand specific for each target) (A2A (h)) [%]	perc_inhibition (% inhibition of the binding of a ligand specific for each target) (alpha2A (h)) [%]	perc_inhibition (% inhibition of the binding of a ligand specific for each target) (MAO-A) [%]	perc_inhibition (% inhibition of the binding of a ligand specific for each target) (M3 (h)) [%]	perc_inhibition: % inhibition of control enzyme activity, acetylcholinesterase (h) (acetylcholinesterase (h)) [%]	perc_inhibition (% inhibition of the binding of a ligand specific for each target) (CB1 (h)) [%]	clint [2] [µL/min/mg]	t_half [2] [min]	perc_inhibition (% inhibition of the binding of a ligand specific for each target) (5-HT1A (h)) [%]	perc_inhibition (% inhibition of the binding of a ligand specific for each target) (ETA (h)) [%]	perc_max_measured (MERS-CoV; [3])	EC90 (MERS-CoV; [4]) [µM]	perc_inhibition_rest_state (NaV1.5; NaV1.5, rest state) [%]	pIC50 (NaV1.5; [5])	perc_inhibition_use_dep_block (NaV1.5; NaV1.5, use dependent block) [%]	pIC50 (NaV1.5; [6])	CC50 at 24 h (in vitro) [µM]	perc_min_measured (MERS-CoV; [3])	further results
CC(C)[C@H](Nc1ncnc2[nH]ccc12)c1ccc2c(c1)S(=O)(=O)CCC2 [ASAP-0008674]	567.0	1.22 min	11	10	7	5	12	-13	155.0	4.49	12	-1	131.878% and 83.309% and 125.339%	> 5	19.0	< 4.52	29.0	< 4.52	> 20		
CC(C)[C@H](Nc1ncnc2[nH]c(-c3cnn(C)c3C#N)cc12)c1ccc2c(n1)OCCO2 [ASAP-0010715]	91.6	7.57 min	84	7	4	-15	15	46	106.0	6.54	43	42	122.135% and 106.633%	> 5	33.0	< 4.52	35.0	< 4.52	> 20	93.468% and 72.24%	pEC50 (MERS-CoV; [7]): < 5.30
CC(C)[C@@H](Nc1ncnc2[nH]c(-c3cnn(C)c3C#N)cc12)c1ccc2c(n1)OCCO2 [ASAP-0010716]	217.0	3.19 min	69	9	8	1	22	14	156.0	4.46	22	5	144.33% and 125.176%	> 5	27.0	< 4.52	25.0	< 4.52		55.976% and 101.272%	pEC50 (MERS-CoV; [7]): < 5.30
CC(C)C(Nc1ncnc2[nH]c(C(=O)NC3CCN(C)C3)cc12)c1ccc2c(c1)S(=O)(=O)CCC2 (centres unmarked) [ASAP-0011198]	61.0	10.1 min and 11.4 min								88.3			124.089% and 106.936%			< 4.52		< 4.52		88.282% and 84.091%	hepatocyte CLint ([1]; mouse, hepatocytes): 68.4 µL/min/1e6 cells; inhibition at 10 µM (A2A (h)): -4%; inhibition at 10 µM (alpha2A (h)): 6%; inhibition at 10 µM (MAO-A): 3%; inhibition at 10 µM (M3 (h)): -9%; inhibition at 10 µM (acetylcholinesterase (h)): 28%; inhibition at 10 µM (CB1 (h)): -10%; microsomal CLint ([2]; Sprague-Dawley (SD), liver microsomes): 7.85 µL/min/mg; inhibition at 10 µM (5-HT1A (h)): 14%; inhibition at 10 µM (ETA (h)): -6%; pEC50 (MERS-CoV; [8]): < 5.30; EC90 (MERS-CoV; [8]): > 5 µM; inhibition at 30 µM (NaV1.5; NaV1.5, rest state, read-out: perc_inhibition_rest_state): 11%; inhibition at 30 µM (NaV1.5; NaV1.5, use dependent block, read-out: perc_inhibition_use_dep_block): 11%
Cn1ncc(-c2cc3c(N[C@@H](c4ccc5c(n4)OCCO5)C(C)(C)C)ncnc3[nH]2)c1C#N [ASAP-0011221]	292.0	2.37 min	52	11	10	-8	14	33	129.0	5.38	15	9			17.0	< 4.52	21.0	< 4.52	> 20		
Cc1nn(C)cc1-c1cc2c(NC(c3ccc4c(c3)S(=O)(=O)CCC4)C(C)C)ncnc2[nH]1 (centres unmarked) [ASAP-0011446]													103.374% and 130.763%							64.505% and 89.964%	inhibition at 10 µM (A2A (h)): 13%; inhibition at 10 µM (alpha2A (h)): 5%; inhibition at 10 µM (MAO-A): 5%; inhibition at 10 µM (M3 (h)): -9%; inhibition at 10 µM (acetylcholinesterase (h)): 13%; inhibition at 10 µM (CB1 (h)): 0%; inhibition at 10 µM (5-HT1A (h)): 10%; inhibition at 10 µM (ETA (h)): -4%; pEC50 (MERS-CoV; [8]): < 5.30; EC90 (MERS-CoV; [8]): > 5 µM
